Reference: patent US6175020A, “Spirodiamino acid scaffold for combinatorial synthesis” (Pharmacopeia, Inc., priority 1999, dated 2001)

Target: plasmepsin II (Plasmodium falciparum, UniProt P46925)
Assay: Biological Assay for Plasmepsin II (EDANS fluorescence)
Format: biochemical
Conditions: 4 nM plasmepsin II, 6 μM plasmepsin substrate, pH 5.0, 10 minutes at 25° C.
Protocol: Biological Assay for Plasmepsin II
The assay mix contained 50 mM sodium acetate (pH 5.0), 1 mg/ml BSA, 0.01% Tween 20, 12.5% glycerol, 18% DMSO and 12 μM plasmepsin substrate. Twenty five μL of the assay mix is added to each well of the 96-well microtiter plate containing dried down bead eluate or empty control wells. The plates are then sonicated and mixed. Then 25 μL of 8 nM plasmepsin II which is in 50 mM sodium acetate (pH 5.0), 1 mg/ml BSA, 0.01% Tween 20, and 12.5% glycerol, is added to the assay mix. The final concentrations are 4 nM plasmepsin II, 6 μM plasmepsin substrate, 9% DMSO, 50 mM sodium acetate (pH 5.0), 1 mg/ml BSA, 0.01% Tween 20, and 12.5% glycerol. The reaction is incubated for 10 minutes at 25° C. and then quenched by the addition of 25 μL of 1 M Tris (pH 8.5) and 50% DMSO to achieve a final concentration of 0.33 M Tris and 23% DMSO. The EDANS fluorescence was measured using the Tecan, SLT FLUOSTAR® fluorescence plate reader with an excitation filter of 350 nm and an emission filter 510 nm. The background was determined by 25 μL of 50 mM sodium acetate (pH 5.0), 1 mg/ml BSA, 0.01% Tween 20, and 12.5% glycerol without enzyme. Compound 23 was active at <1 millimolar concentration.

plasmepsin II, sequence (P46925 125-453): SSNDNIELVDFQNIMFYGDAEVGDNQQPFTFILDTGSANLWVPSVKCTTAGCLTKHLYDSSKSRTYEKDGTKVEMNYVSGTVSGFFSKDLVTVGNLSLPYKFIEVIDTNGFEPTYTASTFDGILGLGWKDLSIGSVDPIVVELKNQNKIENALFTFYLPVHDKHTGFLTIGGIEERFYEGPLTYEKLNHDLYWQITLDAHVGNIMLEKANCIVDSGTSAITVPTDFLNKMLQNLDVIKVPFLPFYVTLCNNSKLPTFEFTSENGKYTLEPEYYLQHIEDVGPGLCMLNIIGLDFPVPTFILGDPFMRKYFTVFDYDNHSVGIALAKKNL

concentration at which compound was active: < 1 millimolar | IC50 (read-out: IC50 (plasmepsin inhibitor)): < 1000 µM
SMILES: C=CCOC(=O)N1C(CC(=O)NCCc2cc(OC)cc(OC)c2)CCC12CCCC2CNC(=O)C[C@H](O)[C@H](CC(C)C)NC(=O)OC(C)(C)C (relative stereo) [Compound 23]
